Assay results from patent US20240090503A1, “FUNGICIDAL OXADIAZOLES AND THEIR MIXTURES” (FMC CORPORATION, priority 2020, published 2024).
Like-named read-outs stand apart in the source and are kept apart here.

Tests used:
[1] = system: Phakopsora pachyrhizi (the causal agent of Asian soybean rust); test: Test A: preventive spray on soybean seedlings, Asian soybean rust, visual disease rating; assay type: in vivo; details: Phakopsora pachyrhizi, 216 h, soybean seedlings, 100 = 100% disease control, 0 = no control; for pest or weed control at 250 ppm: 250 ppm test suspension; for pest or weed control at 10 ppm: 10 ppm test suspension; for pest or weed control at 10 µg/mL: test suspension 10 ppm, read-out: Test A disease control rating
Method in brief: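 Preventive test: soybean seedlings received a run-off spray of compound suspended at the set ppm in 50/50 acetone/water plus 250 ppm PEG400, and one day later a P. pachyrhizi spore inoculum. Visual scoring (0 none to 100 full disease control) followed 24 h saturated incubation and 8 days' growth chamber, both at 22° C.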

[2] = system: Puccinia recondita f. sp. tritici (the causal agent of wheat leaf rust); test: Test C: preventive spray on wheat seedlings, wheat leaf rust, visual disease rating; assay type: in vivo; details: Puccinia recondita, 168 h, wheat seedlings; for pest or weed control at 250 ppm: 250 ppm test suspension; for pest or weed control at 10 ppm: 10 ppm test suspension; for pest or weed control at 10 µg/mL: test suspension 10 ppm, read-out: Test C disease control rating
Method in brief: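 Wheat seedlings sprayed to run-off with compound in acetone/water (50/50) with 250 ppm PEG400, then inoculated with spores the following day. After 24 h saturated humidity at 20° C. and 6 days in growth chamber at 20° C., disease rated visually as % control relative to untreated controls.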

[3] = system: Zymoseptoria tritici (the causal agent of wheat leaf blotch); test: Test B: preventive spray on wheat seedlings, wheat leaf blotch, visual disease rating; assay type: in vivo; details: Zymoseptoria tritici, 456 h, wheat seedlings; for pest or weed control at 250 ppm: 250 ppm test suspension, 100 = 100% disease control; for pest or weed control at 250 µg/mL: test suspension 250 ppm
Method in brief: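 This is a preventive test: spray application preceded Zymoseptoria tritici spore inoculation by one day. Test suspensions were in acetone/water with 250 ppm PEG400 surfactant, at the listed ppm rate. After 48 h saturated humidity at 24° C and 17 days at 20° C, visual ratings scored control from 0 to 100%.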

[4] = system: Phakopsora pachyrhizi (the causal agent of Asian soybean rust); test: Test E: compounds alone and mixtures sprayed on soybean seedlings, Asian soybean rust, observed and Colby-expected disease control; assay type: in vivo
Excerpt: The general protocol for preparing test compositions for TEST E was as follows: Compound 316, Compound 376, Compound 225, Compound 229, Compound 257, Compound 394, Compound 506, Compound 507, Compound 508, Compound 509, Compound 511, Compound 512, methyl N-[[5-[1-[2,6-difluoro-4-(1-methylethyl)phenyl]-1H-pyrazol-3-yl]-2-methylphenyl]methyl]carbamate (b54.11a), methyl N-[[5-[l-(4-cyclopropyl-2,6-difluorophenyl)-1H-pyrazol-3-yl]-2-methylphenyl]methyl]carbamate (b54.11d), ethyl 1-[[4-[[(1Z)-2-ethoxy-3,3,3-trifluoro-1-propen-1-yl]oxy]phenyl]methyl]-1H-pyrazole-4-carboxylate (b54.12a), ethyl 1-[[4-[[2-(trifluoromethyl)-1,3-dioxolan-2-yl]methoxy]phenyl]methyl]-1H-pyrazole-4-carboxylate (b54.13a), azoxystrobin, benzovindiflupyr, bixafen, chlorothalonil, cyproconazole, epoxiconazole, fenpropidin, fenpropimorph, fluindapyr, flutriafol, fluxapyroxad, inpyrfluxam, metominostrobin, picoxystrobin, prothioconazole, pydiflumetofen, pyraclostrobin, tebuconazole and trifloxystrobin were obtained as unformulated, technical-grade materials. Copper hydroxide and mancozeb was obtained as a formulated product marketed under the trademarks KOCIDE 3000 and MANZATE, respectively. Unformulated materials were first dissolved in acetone and then suspended at the desired concentration (in ppm) in acetone and purified water (50/50 mixture by volume) containing 250 ppm of the surfactant Trem® 014 (polyhydric alcohol esters). Formulated materials were dispersed in sufficient water to give the desired concentration, and neither organic solvent nor surfactant was added to the suspension. The resulting test mixtures were then used in TEST E. The tests were run on four individual plants and the results reported as the mean average of the four plants.
The presence of a synergistic effect between two active ingredients can be established with the aid of the Colby equation (see Colby, S. R. “Calculating Synergistic and Antagonistic Responses of Herbicide Combinations”, Weeds, (1967), 15, 20-22):
Using the method of Colby, the presence of a synergistic interaction between two active ingredients is established by first calculating the predicted activity, p, of the mixture based on activities of the two components applied alone. If p is lower than the experimentally established effect, synergism has occurred. In the equation above, A is the fungicidal activity in percentage control of one component applied alone at rate x. The B term is the fungicidal activity in percentage control of the second component applied at rate y. The equation estimates p, the expected fungicidal activity of the mixture of A at rate x with B at rate y if their effects are strictly additive and no interaction has occurred.
The test mixture was sprayed to the point of run-off on soybean seedlings. The following day the seedlings were inoculated with a spore suspension of Phakopsora pachyrhizi (the causal agent of Asian soybean rust) and incubated in a saturated atmosphere at 22° C. for 24 h and then moved to a growth chamber at 22° C. for 8 days, after which time visual disease ratings were made.
Results for Test E are given below in Tables A-1 through K-2. Each table corresponds to a set of evaluations performed together at the same time. In each table, a rating of 100 indicates 100% disease control and a rating of 0 indicates no disease control (relative to the controls). Columns labeled “Obsd” indicate the average of results observed from test run on four individual plants. Columns labeled “Exp” indicate the expected value for each treatment mixture using the Colby equation, as described above.

[5] = 100 = 100% disease control, 0 = no control
[6] = Phakopsora pachyrhizi, Compound 511 alone, read-out: Test E Obsd
[7] = Phakopsora pachyrhizi, applied alone, read-out: Test E Obsd
[8] = Phakopsora pachyrhizi, Compound 509 alone, read-out: Test E Obsd

Compound: COCCNC(=O)c1noc(Cc2ccc(-c3noc(C(F)(F)F)n3)cc2)n1 [Compound 511, N-(2-methoxyethyl)-5-[[4-[5-(trifluoromethyl)-1,2,4-oxadiazol-3-yl]phenyl]methyl]-1,2,4-oxadiazole-3-carboxamide]
- melting point: 80 to 85 °C
- pest or weed control at 250 ppm [1]: 100%
- pest or weed control at 250 ppm [2, 5]: 100%
- pest or weed control at 250 ppm [3]: 90%
- pest or weed control at 2.436 ppm [4, 6]: 21%
- pest or weed control at 4.926 ppm [4, 6]: 68%
- pest or weed control at 2.436 ppm [4, 7]: 40%
- pest or weed control at 4.926 ppm [4, 7]: 66%

Compound: O=C(NCC(F)F)c1csc(Cc2ccc(-c3noc(C(F)(F)F)n3)cc2)n1 [Compound 505, N-(2,2-difluoroethyl)-2-[[4-[5-(trifluoromethyl)-1,2,4-oxadiazol-3-yl]phenyl]methyl]-4-thiazolecarboxamide]
- melting point: 83 to 92 °C
- pest or weed control at 10 ppm [1]: 100%
- pest or weed control at 10 ppm [2, 5]: 100%
- pest or weed control at 250 ppm [3]: 100%

Compound: Cn1nc(C(=O)NCC(F)(F)F)cc1Cc1ccc(-c2noc(C(F)(F)F)n2)cc1 [Compound 509, 1-methyl-N-(2,2,2-trifluoroethyl)-5-[[4-[5-(trifluoromethyl)-1,2,4-oxadiazol-3-yl]phenyl]methyl]-1H-pyrazole-3-carboxamide]
- melting point: 142 to 142.9 °C
- pest or weed control at 50 ppm ([1]; 50 ppm test suspension): 100%
- pest or weed control at 50 ppm ([2]; 50 ppm test suspension, 100 = 100% disease control, 0 = no control): 99%
- pest or weed control at 2.796 ppm [4, 8]: 36%
- pest or weed control at 5.625 ppm [4, 8]: 47%
- pest or weed control at 2.796 ppm [4, 7]: 54%
- pest or weed control at 5.625 ppm [4, 7]: 35%

Compound: O=C(NCC(F)(F)F)c1coc(Cc2ccc(-c3noc(C(F)(F)F)n3)cc2)n1 [Compound 316, N-(2,2,2-trifluoroethyl)-2-[[4-[5-(trifluoromethyl)-1,2,4-oxadiazol-3-yl]phenyl]methyl]-4-oxazolecarboxamide]
- melting point: 164 to 168 °C
- pest or weed control at 10 µg/mL [1]: 100%
- pest or weed control at 10 µg/mL [2]: 100%
- pest or weed control at 250 µg/mL [3]: 5%
- pest or weed control at 0.471 ppm ([4]; Phakopsora pachyrhizi, Compound 316 alone, 0.471 ppm, read-out: Test E Obsd): 24%
- pest or weed control at 0.764 ppm ([4]; Phakopsora pachyrhizi, Compound 316 alone, 0.764 ppm, read-out: Test E Obsd): 82%
- pest or weed control at 0.471 ppm ([4]; Phakopsora pachyrhizi, Table A-1, Compound 316 0.471 ppm alone, read-out: Test E Obsd (disease control rating)): 59%
- pest or weed control at 0.764 ppm ([4]; Phakopsora pachyrhizi, Table A-1, Compound 316 0.764 ppm alone, read-out: Test E Obsd (disease control rating)): 75%
- pest or weed control at 0.471 ppm ([4]; Phakopsora pachyrhizi, Table B-1, Compound 316 0.471 ppm alone, read-out: Test E Obsd (disease control rating)): 22%
- pest or weed control at 0.764 ppm ([4]; Phakopsora pachyrhizi, Table B-1, Compound 316 0.764 ppm alone, read-out: Test E Obsd (disease control rating)): 54%
- pest or weed control at 0.471 ppm ([4]; Phakopsora pachyrhizi, Table C-1, Compound 316 0.471 ppm alone, read-out: Test E Obsd (disease control rating)): 49%
- pest or weed control at 0.764 ppm ([4]; Phakopsora pachyrhizi, Table C-1, Compound 316 0.764 ppm alone, read-out: Test E Obsd (disease control rating)): 66%
- pest or weed control at 0.471 ppm ([4]; Phakopsora pachyrhizi, Table D-1, Compound 316 0.471 ppm alone, read-out: Test E Obsd (disease control rating)): 20%
- pest or weed control at 0.764 ppm ([4]; Phakopsora pachyrhizi, Table D-1, Compound 316 0.764 ppm alone, read-out: Test E Obsd (disease control rating)): 70%
- pest or weed control at 0.471 ppm ([4]; Phakopsora pachyrhizi, Table F-1, Compound 316 0.471 ppm alone, read-out: Test E Obsd (disease control rating)): 61%
- pest or weed control at 0.764 ppm ([4]; Phakopsora pachyrhizi, Table F-1, Compound 316 0.764 ppm alone, read-out: Test E Obsd (disease control rating)): 68%
- pest or weed control at 0.471 ppm ([4]; Phakopsora pachyrhizi, Table G-1, Compound 316 0.471 ppm alone, read-out: Test E Obsd (disease control rating)): 31%
- pest or weed control at 0.764 ppm ([4]; Phakopsora pachyrhizi, Table G-1, Compound 316 0.764 ppm alone, read-out: Test E Obsd (disease control rating)): 64%
- pest or weed control at 0.471 ppm ([4]; Phakopsora pachyrhizi, Table H-1, Compound 316 0.471 ppm alone, read-out: Test E Obsd (disease control rating)): 44%
- pest or weed control at 0.764 ppm ([4]; Phakopsora pachyrhizi, Table H-1, Compound 316 0.764 ppm alone, read-out: Test E Obsd (disease control rating)): 80%
- pest or weed control at 0.471 ppm ([4]; Table E-1, Compound 316 0.471 ppm alone, read-out: Test E Obsd (disease control rating)): 61%
- pest or weed control at 0.764 ppm ([4]; Table E-1, Compound 316 0.764 ppm alone, read-out: Test E Obsd (disease control rating)): 58%

Compound: O=C(NCC(F)(F)F)c1noc(Cc2ccc(-c3noc(C(F)(F)F)n3)cc2)n1 [Compound 506, N-(2,2,2-trifluoroethyl)-5-[[4-[5-(trifluoromethyl)-1,2,4-oxadiazol-3-yl]phenyl]methyl]-1,2,4-oxadiazole-3-carboxamide]
- melting point: 116 to 120 °C
- pest or weed control at 250 ppm [1]: 100%
- pest or weed control at 250 ppm [2, 5]: 100%
- pest or weed control at 250 ppm [3]: 49%

Compound: O=C(NCCn1cccn1)c1coc(Cc2ccc(-c3noc(C(F)(F)F)n3)cc2)n1 [Compound 264, N-[2-(1H-pyrazol-1-yl)ethyl]-2-[[4-[5-(trifluoromethyl)-1,2,4-oxadiazol-3-yl]phenyl]methyl]-4-oxazolecarboxamide]
- melting point: 125 to 126 °C
- pest or weed control at 10 µg/mL [1]: 100%
- pest or weed control at 10 µg/mL [2]: 99%
- pest or weed control at 250 µg/mL [3]: 99%

Compound: N#CCn1ccc(Cc2ccc(-c3noc(C(F)(F)F)n3)cc2)n1 [Compound 507, 3-[4-[(1-cyanomethyl-1H-pyrazol-3-yl)methyl]phenyl]-5-(trifluoromethyl)-1,2,4-oxadiazole]
- melting point: 111 to 114 °C
- pest or weed control at 10 ppm [1]: 100%
- pest or weed control at 10 ppm [2, 5]: 98%
- pest or weed control at 1.823 ppm ([4]; Phakopsora pachyrhizi, applied alone, 1.823 ppm, read-out: Test E Obsd): 74%

Compound: O=C(NCCC(F)(F)F)c1coc(Cc2ccc(-c3noc(C(F)(F)F)n3)cc2)n1 [Compound 330, 2-[[4-[5-(trifluoromethyl)-1,2,4-oxadiazol-3-yl]phenyl]methyl]-N-(3,3,3-trifluoropropyl)-4-oxazolecarboxamide]
- melting point: 104 to 105 °C
- pest or weed control at 10 µg/mL [1]: 100%
- pest or weed control at 10 µg/mL [2]: 100%
- pest or weed control at 250 µg/mL [3]: 96%
